Assay results from ChEMBL document CHEMBL1201862, “PubChem BioAssay data set” (2004).
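How tested: cells in 96-well plates exposed to compound for 48 hours at five concentrations. GI50: concentration for 50% inhibition of growth.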 Calls of active or inactive are those of the source. No stated cut-off is given here; in the data, active = GI50 up to about 1.1 µM and inactive = higher.

Experiments:
Assay in all cases: growth of human tumour cells (NCI), 48 h
786-0 = tested on: 786-0
BT-549 = tested on: BT-549
CAKI-1 = tested on: CAKI-1
DU-145 = tested on: DU-145
HCC 2998 = tested on: HCC 2998
HCT-15 = tested on: HCT-15
HOP-92 = tested on: HOP-92
K562 = tested on: K562
MCF7 = tested on: MCF7
MDA-MB-231 = tested on: MDA-MB-231
NCI/ADR-RES = tested on: NCI/ADR-RES
OVCAR-3 = tested on: OVCAR-3
OVCAR-5 = tested on: OVCAR-5
PC-3 = tested on: PC-3
SF-268 = tested on: SF-268
SF-539 = tested on: SF-539
SNB-75 = tested on: SNB-75
SW-620 = tested on: SW-620
T47D = tested on: T47D
UO-31 = tested on: UO-31

Row | SMILES | GI50 (786-0) | GI50 (BT-549) | GI50 (CAKI-1) | GI50 (DU-145) | GI50 (HCC 2998) | GI50 (HCT-15) [µM] | GI50 (HOP-92) | GI50 (K562) | GI50 (MCF7) | GI50 (MDA-MB-231) | GI50 (NCI/ADR-RES) | GI50 (OVCAR-3) | GI50 (OVCAR-5) | GI50 (PC-3) | GI50 (SF-268) | GI50 (SF-539) | GI50 (SNB-75) | GI50 (SW-620) | GI50 (T47D) | GI50 (UO-31)
1 | COCc1nc(N)nc(N2N=C(C)CC2(C)C)n1 | > 100 µM (inactive) | > 100 µM (inactive) | > 100 µM (inactive) | > 100 µM (inactive) | > 100 µM (inactive) | > 100 | > 100 µM (inactive) | > 100 µM (inactive) | > 100 µM (inactive) | > 100 µM (inactive) | > 100 µM (inactive) | > 100 µM (inactive) | > 100 µM (inactive) | > 100 µM (inactive) | > 100 µM (inactive) | > 100 µM (inactive) | > 100 µM (inactive) | > 100 µM (inactive) | > 100 µM (inactive) | > 100 µM (inactive)
2 | c1ccc2c(c1)Oc1cccc3cccc-2c13 | > 100 µM (inactive) | > 100 µM (inactive) | > 100 µM (inactive) | > 100 µM (inactive) | > 100 µM (inactive) | 98.4 | > 100 µM (inactive) | > 100 µM (inactive) | > 100 µM (inactive) | > 100 µM (inactive) | > 100 µM (inactive) | 42.3 µM (inactive) | > 100 µM (inactive) | > 100 µM (inactive) | > 100 µM (inactive) | > 100 µM (inactive) | > 100 µM (inactive) | > 100 µM (inactive) | > 100 µM (inactive) | > 100 µM (inactive)
3 | COC1(OC)C2(Cl)CCC1(Cl)C(OC(C)=O)C2 (stereo not given) | > 100 µM (inactive) | > 100 µM (inactive) | > 100 µM (inactive) | > 100 µM (inactive) | > 100 µM (inactive) | > 100 | > 100 µM (inactive) | > 100 µM (inactive) | > 100 µM (inactive) | > 100 µM (inactive) | > 100 µM (inactive) | > 100 µM (inactive) | > 100 µM (inactive) | > 100 µM (inactive) | > 100 µM (inactive) | > 100 µM (inactive) | > 100 µM (inactive) | > 100 µM (inactive) | > 100 µM (inactive) | > 100 µM (inactive)
4 | Nc1n[nH]c(N)n1 [GUANAZOLE] | 2580 µM (inactive) | > 6490 µM (inactive) | 3550 µM (inactive) | 5130 µM (inactive) | 6900 µM (inactive) | 7670 | 5190 µM (inactive) | 7110 µM (inactive) | 3400 µM (inactive) | > 10000 µM (inactive) | 2580 µM (inactive) | > 10000 µM (inactive) | 4980 µM (inactive) | 8510 µM (inactive) | 5740 µM (inactive) | 2510 µM (inactive) | 9250 µM (inactive) | > 9380 µM (inactive) | > 9160 µM (inactive) | 7030 µM (inactive)
5 | C=C1[C@@H](O)C[C@@]23CC[C@@H]4[C@@]5(C)CC[C@@H](OC(C)=O)C(C)(C)[C@@H]5C[C@@H](OC5OC(COC(C)=O)C(O)C(O)C5O)[C@@]4(C)C2=CC[C@H]3[C@H]1C (stereo not given in full) | 6.14 µM (inactive) | 8.17 µM (inactive) | 13.1 µM (inactive) | 10.5 µM (inactive) | 1.75 µM (inactive) | 12.4 | 7.38 µM (inactive) | 2.99 µM (inactive) | 2.14 µM (inactive) | 5.47 µM (inactive) | 17.5 µM (inactive) | 3.72 µM (inactive) | 2.22 µM (inactive) | 3.66 µM (inactive) | 4.82 µM (inactive) | 11.8 µM (inactive) | 3.96 µM (inactive) | 6.44 µM (inactive) | 5.09 µM (inactive) | 14.1 µM (inactive)
6 | CCCCCCOP(=O)(OCCCCCC)OC(C(=O)OC)C(F)(F)F (stereo not given) | > 100 µM (inactive) | > 100 µM (inactive) | > 100 µM (inactive) | > 100 µM (inactive) | > 100 µM (inactive) | > 100 | > 100 µM (inactive) | > 100 µM (inactive) | > 100 µM (inactive) | > 100 µM (inactive) | > 100 µM (inactive) | > 100 µM (inactive) | > 100 µM (inactive) | > 100 µM (inactive) | > 100 µM (inactive) | > 100 µM (inactive) | > 100 µM (inactive) | > 100 µM (inactive) | > 100 µM (inactive) | > 100 µM (inactive)
7 | O=c1cc(-c2ccccc2)c2ccc(O)c(CN(CCCl)CCCl)c2o1 | 18.5 µM (inactive) | 10.6 µM (inactive) | 15.5 µM (inactive) | 33.6 µM (inactive) | 12.3 µM (inactive) | 22.1 | 20.8 µM (inactive) | 29 µM (inactive) | 17.2 µM (inactive) | 15.7 µM (inactive) | 32.3 µM (inactive) | 19.3 µM (inactive) | 17.8 µM (inactive) | 17.8 µM (inactive) | 17.5 µM (inactive) | 20.3 µM (inactive) | 15.7 µM (inactive) | 18.8 µM (inactive) | 23.4 µM (inactive) | 14.4 µM (inactive)
8 | NC(=O)Cc1nc2c(O)ncnc2n1C1OC(CO)C(O)C1O (stereo not given) | > 100 µM (inactive) | > 100 µM (inactive) | > 100 µM (inactive) | > 100 µM (inactive) | > 100 µM (inactive) | > 100 | > 100 µM (inactive) | > 100 µM (inactive) | > 100 µM (inactive) | > 100 µM (inactive) | > 100 µM (inactive) | > 100 µM (inactive) | > 100 µM (inactive) | > 100 µM (inactive) | > 100 µM (inactive) | > 100 µM (inactive) | > 100 µM (inactive) | > 100 µM (inactive) | > 100 µM (inactive) | > 100 µM (inactive)
9 | Oc1cccc2cc(Cl)cnc12 | 23.6 µM (inactive) | 22.6 µM (inactive) | 55.1 µM (inactive) | 31.5 µM (inactive) | 27.1 µM (inactive) | 3.82 | 43.2 µM (inactive) | 3.87 µM (inactive) | 3.4 µM (inactive) | 9.68 µM (inactive) | 3.48 µM (inactive) | 2.99 µM (inactive) | 28 µM (inactive) | 10.6 µM (inactive) | 3.85 µM (inactive) | 10.3 µM (inactive) | 28.1 µM (inactive) | 7.18 µM (inactive) | 4.42 µM (inactive) | 8.09 µM (inactive)
10 | COC(=O)c1ccc(CCc2cc(O)ccc2O)cc1 | 5.47 µM (inactive) | 5.7 µM (inactive) | 4.06 µM (inactive) | 32.4 µM (inactive) | 23.9 µM (inactive) | 8.79 | 9.25 µM (inactive) | 2.15 µM (inactive) | 7.5 µM (inactive) | 10.1 µM (inactive) | 12.8 µM (inactive) | 2.96 µM (inactive) | 19.2 µM (inactive) | 4.3 µM (inactive) | 5.68 µM (inactive) | 3.66 µM (inactive) | 3.77 µM (inactive) | 6.27 µM (inactive) | 2.6 µM (inactive) | 2.02 µM (inactive)
11 | CC(=C(C(=O)O)C(=O)O)c1cc(-c2cccs2)cc(-c2ccc(Cl)cc2)c1O | 15.2 µM (inactive) | 15.7 µM (inactive) | 17.4 µM (inactive) | 14.4 µM (inactive) | 18.5 µM (inactive) | 14 | 14.9 µM (inactive) | 5.3 µM (inactive) | 5.47 µM (inactive) | 18.2 µM (inactive) | 20.3 µM (inactive) | 14.9 µM (inactive) | 29.4 µM (inactive) | 13.6 µM (inactive) | 17.9 µM (inactive) | 14.6 µM (inactive) | 18 µM (inactive) | 18.7 µM (inactive) | 6.68 µM (inactive) | 11.9 µM (inactive)
12 | O=c1cc(/N=N\c2ccc(Br)cc2)[nH]c(=S)[nH]1 | 4.7 µM (inactive) | 56.6 µM (inactive) | 10.4 µM (inactive) | 61.1 µM (inactive) | 17.8 µM (inactive) | 14.9 | 19.5 µM (inactive) | 21.7 µM (inactive) | 15.8 µM (inactive) | 17.6 µM (inactive) | 61.2 µM (inactive) | 15.4 µM (inactive) | 25.6 µM (inactive) | 61.1 µM (inactive) | 39.3 µM (inactive) | 70.1 µM (inactive) | > 100 µM (inactive) | 27.2 µM (inactive) | 17.3 µM (inactive) | 55.8 µM (inactive)
13 | COC(C)(C)C(O)C(O)C[C@H](C)C1CC=C2C1(C)CCC1[C@@]3(C)CCC(OC(C)=O)C(C)(C)C3CC(OC3OC(COC(C)=O)C(O)C(O)C3O)[C@@]21C (stereo not given in full) | 4.8 µM (inactive) | > 10 µM (inactive) | > 10 µM (inactive) | 7.1 µM (inactive) | 2.14 µM (inactive) | 3.85 | 3.6 µM (inactive) | 3.33 µM (inactive) | 3.33 µM (inactive) | 2.5 µM (inactive) | > 10 µM (inactive) | 2.94 µM (inactive) | 2.88 µM (inactive) | 3.48 µM (inactive) | 6.05 µM (inactive) | 2.83 µM (inactive) | 3.7 µM (inactive) | 5.38 µM (inactive) | 5.13 µM (inactive) | 0.287 µM (active)
14 | CC(=O)/C(=C(/Br)I)c1ccccc1 | 9.04 µM (inactive) | 1.97 µM (inactive) | 3.03 µM (inactive) | 15.8 µM (inactive) | 6.81 µM (inactive) | 4.32 | 10.5 µM (inactive) | 2.82 µM (inactive) | 6.47 µM (inactive) | 13.2 µM (inactive) | 9.35 µM (inactive) | 6.49 µM (inactive) | 18.1 µM (inactive) | 16.8 µM (inactive) | 12 µM (inactive) | 16.6 µM (inactive) | 14.2 µM (inactive) | 3.15 µM (inactive) | 3.48 µM (inactive) | 12.4 µM (inactive)
